The values below come from patent EP0079397A1, “Asymmetrically substituted (2,4,6-triodoanilides) of dicarboxylic acids, their preparation and X-ray contrast agents containing them” (SCHERING AKTIENGESELLSCHAFT, priority 1981, dated 1983).

The nature of data set [1]: Protein binding to human serum. The class given is in vitro ADME. To be noted: at ca. 1,2 mg Jod/ml, meglumine salts, read-out: Proteinbindung an Humanserum (converted).
Data set [2] can be described thus: Partition coefficient butanol/water. It is filed as physicochemical. To be noted: meglumine salts.
Data set [3] relates to Ratte. Briefly: Neural tolerance after pericerebral injection in rats (method of Valzelli). As to conditions: 0,04 ml injected, ca. 100 g rats, 24 h observation: excitation, posture anomalies, coma, death. It is filed as in vivo. The method, then:
(§1) • 1) Injektion der Kontrastmittel als Megluminsalzlösungen mit 180 mg Jod/ml mit einer Geschwindigkeit von 0,8 ml/min bei 100 g schweren männlichen und weiblichen Ratten. • 2) Männlichen und weiblichen Ratten im Gewicht von etwa 100 g wurden in leichter Äthernarkose je 0,04 ml unterschiedlich konzentrierter Kontrastmittellösungen nach der Methode von Valzelli durch eine natürliche Knochenspalte des Schädels zwischen Joch- und Hinterhauptbein intrazerebral injiziert. Die Injektion erfolgte mit einer Hamilton Spritze 710 N, bei der die Einstichtiefe auf 10 mm begrenzt ist. Je Präparat wurden mindestens 4 Dosierungen an 10 Tieren untersucht. Als Wirkungskriterien wurden über den Zeitraum von 24 Stunden Exzitationszustände, schwere Haltungsanomalien, Koma und Tod bewertet. • 3) Bei grundsätzlich gleicher Versuchsanlage wie unter 2) beschrieben, wurden 200-250 g schweren Ratten die Kontrastmittel in die Cisterna suboccipitalis injiziert. Die Kontrastmittel wurden mit 3%iger Mannit-lösung verdünnt, um den osmotischen Druck anzupassen. • 4) Ratten (ca. 150 g Körpergewicht) wurde in Ithernarkose ein Polyäthylenschlauch in den Ductus choledochus eingebunden. […]

Data set [4] relates to Ratte. Briefly: Acute intravenous toxicity (DL50) in rats. To be noted: meglumine salt solutions 180 mg Jod/ml, 0,8 ml/min, 100 g rats. The class given is in vivo. The method, then:
as §1

Data set [5] concerns Ratte. Briefly: Neural tolerance after intracisternal injection in rats. The class given is in vivo. As to conditions: injection into Cisterna suboccipitalis, 200-250 g rats, diluted with 3% mannitol solution. As for the experimental part:
as §1

Data set [6] is described as follows: in vivo. Also on record: species or system Ratte. As to conditions: rat, iv, 60 mg/kg. The method, then: • 1) Injektion der Kontrastmittel als Megluminsalzlösungen mit 180 mg Jod/ml mit einer Geschwindigkeit von 0,8 ml/min bei 100 g schweren männlichen und weiblichen Ratten. • 2) Männlichen und weiblichen Ratten im Gewicht von etwa 100 g wurden in leichter Äthernarkose je 0,04 ml unterschiedlich konzentrierter Kontrastmittellösungen nach der Methode von Valzelli durch eine natürliche Knochenspalte des Schädels zwischen Joch- und Hinterhauptbein intrazerebral injiziert. Die Injektion erfolgte mit einer Hamilton Spritze 710 N, bei der die Einstichtiefe auf 10 mm begrenzt ist. Je Präparat wurden mindestens 4 Dosierungen an 10 Tieren untersucht. Als Wirkungskriterien wurden über den Zeitraum von 24 Stunden Exzitationszustände, schwere Haltungsanomalien, Koma und Tod bewertet. • 3) Bei grundsätzlich gleicher Versuchsanlage wie unter 2) beschrieben, wurden 200-250 g schweren Ratten die Kontrastmittel in die Cisterna suboccipitalis injiziert. Die Kontrastmittel wurden mit 3%iger Mannit-lösung verdünnt, um den osmotischen Druck anzupassen. • 4) Ratten (ca. 150 g Körpergewicht) wurde in Ithernarkose ein Polyäthylenschlauch in den Ductus choledochus eingebunden. Etwa eine Stunde nachdem die Tiere aus der Narkose erwacht waren, wurden die Kontrastmittel in einer Dosis von 60 mg Jod/kg intravenös injiziert und die Galle bis 3 Stunden nach der Injektion fraktioniert gesammelt. • 5) Intakten Ratten von etwa 100 g Körpergewicht wurde 20 Minuten vor der Verabreichung des Kontrastmittels 5 ml Wasser und dann in 1-stündigem Abstand nach der Verabreichung der Prüfsubstanzen 3 mal je 2 ml Wasser oral verabreicht. bis 3 Stunden nach der i.v. Injektion des Kontrastmittels in einer Dosis von 60 mg Jod/kg wurde der Harn quantitativ gesammelt. • 4), 5) die Messung des Kontrastmittels erfolgte entweder aufgrund der ^131J-Aktivität in den Proben oder bei nicht radioaktiv markierten Kontrastmitteln mit Hilfe der Röntgenfluoreszenz des Jods.

Data set [7] has as its system Leber. As to conditions: dog; cited from earlier work.
Data set [8] concerns Leber. To be noted: man; cited from earlier work.
Another data set concerns Leber des Hundes. Briefly: Maximum enrichment in dog liver by computed tomography. To be noted: 360 mg Jod/kg i.v.; for maximale Anreicherung in der Leber des Hundes: meglumine salt solutions 180 mg Jod/ml, CT up to 90 min.
A short description of data set [9]: in vivo. As to conditions: dog, iv.
Experimental: (§2) Die Werte wurden an gesunden weiblichen und männlichen Beagle-Hunden (Züchter: Schering) im Gewicht von 9-14 kg ermittelt.
(§3) Die Megluminsalzlösungen enthielten 180 mg Jod/ml.
(§4) Die Scanzeit betrug 20 Sekunden, die Röhrenspannung 120 kV. Bei einer Bildmatrix von 320 x 320 Elementen betrug die Standardabweichung vom Mittelwert eines normierten Wasserphantoms 1,6 % (d.h. + 8 EU = EMI-Units.
(§5) Die Auswertung der Computertomogramme stets des gleichen Leberareals erfolgte mit Hilfe der Auswerteeinheit "IVC" der Fa. EMI.

Read-outs that look alike come from different tables or passages of the source.

Experimental for Leber des Hundes: as §2, §3, §4, §5

With `O=C(CCCCC(=O)Nc1c(I)cc(I)c(C(=O)O)c1I)Nc1c(I)cc(I)c(C(=O)O)c1I` [B, Iodipamid], the fraction unbound in [1] was 0.23. Also, the “Verteilungskoeffizient Butanol/Wasser pH 7.4” value in data set [2] was 0,278 ± 0,008. For the same compound, in the data set on Ratte [3], the “Ratte, pericerebral, ED50” value is given as 6,35 (5,11-7,44) mg Jod/kg. For the same compound, the “DL50, i.v., Ratte” value in the data set with Ratte [4] is given as 2,6 g Jod/kg. Also, the “Ratte, intrazisternal, ED50” value in the data set on Ratte [5] was 1,07 (0,54-1,83) mg Jod/kg. Further, in the data set “in vivo [6]”, the dose excreted at 0.5 h was determined as 59.4% and the dose excreted at 3 h stood at 91.5%.
Consider `CNC(=O)c1c(I)c(NC(=O)CCCCCCCCC(=O)Nc2c(I)c(C(=O)O)c(I)c(C(=O)NC)c2I)c(I)c(C(=O)O)c1I` [D, Iosefamsäure], for which the “Konzentration in der Leber” value in the data set on Leber [7] was “noch ausreichende”; in the data set with Leber [8], “nicht mehr genügende”. The “maximale Anreicherung in der Leber des Hundes” value in the data set on Leber des Hundes was 22,8 EMI-Units. Moreover, the “maximale Anreicherung in der Leber des Hundes, min. p. appl.” value with Leber des Hundes (time of maximum enrichment) was found to be 80 min. p. appl.
For `CNC(=O)c1c(I)c(NC(=O)COCC(=O)N(C)c2c(I)cc(I)c(C(=O)O)c2I)c(I)c(C(=O)O)c1I` [E, 3-Oxapentan-disäure-l-(3-carboxy-2,4,6-trijod-N-methylanilid)-5-(3-carboxy-5N-methylcarbamoyl-2,4,6-trijodanilid)], the Tmax in the data set “in vivo [9]” is 1.5 h. Moreover, in the data set on Leber des Hundes, the “maximale Anreicherung in der Leber des Hundes” value was 42,1 EMI-Units.
`CNC(=O)c1c(I)c(NC(=O)CCCCC(=O)Nc2c(I)cc(I)c(C(=O)O)c2I)c(I)c(C(=O)O)c1I` [Verbindung A, Hexandisäure-1-(3-carboxy-2,4,6-trijod-anilid)-6-(3-carboxy-5-N-methylcarbamoyl-2,4,6-trijodanilid)]: in data set [1], the fraction unbound is 0.57. For the same compound, in [2], the “Verteilungskoeffizient Butanol/Wasser pH 7.4” value is reported as 0,083 ± 0,001. The “Ratte, pericerebral, ED50” value in the data set with Ratte [3] is given as 17,1 (11,8-23,6) mg Jod/kg. Moreover, the “DL50, i.v., Ratte” value in the data set on Ratte [4] was 5,5 g Jod/kg. Further, in the data set with Ratte [5], the “Ratte, intrazisternal, ED50” value was 15,6 (11,5-21,1) mg Jod/kg. Also, in “in vivo [6]”, the dose excreted at 0.5 h came to 61.3% and the dose excreted at 3 h was 85.9%.
